Results from patent publication US20260092061A1, “COMPOUNDS FOR TARGETED PROTEIN DEGRADATION” (Amphista Therapeutics Limited, priority 2022, published 2026).

Assays:
[1] = biological target: T1, BRD9 (Homo sapiens, UniProt Q9H8M2); test: Degradation of BRD9 (IF), immunofluorescence in MV4-11 cells, 24 hours (Assay Protocol 2); type: cell-based; parameters: A suspension of MV4-11 cells (ATCC CRL-9591) was prepared; host or cells: MV4-11
T1 sequence (Q9H8M2 1-597): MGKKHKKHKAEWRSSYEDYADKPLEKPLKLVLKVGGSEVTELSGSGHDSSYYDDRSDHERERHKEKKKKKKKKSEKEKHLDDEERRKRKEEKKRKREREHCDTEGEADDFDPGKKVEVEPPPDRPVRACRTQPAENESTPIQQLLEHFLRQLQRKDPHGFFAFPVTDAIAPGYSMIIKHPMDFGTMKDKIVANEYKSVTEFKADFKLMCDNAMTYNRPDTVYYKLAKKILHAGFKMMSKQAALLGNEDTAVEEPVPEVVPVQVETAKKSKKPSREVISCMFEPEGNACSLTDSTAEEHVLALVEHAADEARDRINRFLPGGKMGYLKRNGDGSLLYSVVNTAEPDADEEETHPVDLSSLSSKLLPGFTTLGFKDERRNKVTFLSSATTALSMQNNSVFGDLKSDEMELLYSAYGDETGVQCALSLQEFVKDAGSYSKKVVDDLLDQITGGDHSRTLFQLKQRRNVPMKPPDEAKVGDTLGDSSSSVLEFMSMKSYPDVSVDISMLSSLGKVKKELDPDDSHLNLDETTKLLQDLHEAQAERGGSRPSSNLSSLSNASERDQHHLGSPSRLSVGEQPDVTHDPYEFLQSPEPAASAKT
Method in brief: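 % BRD9 remaining, scaled between DMSO (high) and 100 nM CFT-8634 (low) control wells, derives from mean Alexa 647 contrast in central nuclei by high-content imaging. MV4-11 cells had 24 h compound exposure at 37° C. before PFA fixation, Triton permeabilisation and anti-BRD9 E4Q3F immunostaining.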

[2] = biological target: T1, BRD9; test: BRD9 degradation, HiBiT-BRD9 KI HEK293 (LgBiT) cells, NanoGlo Lytic Endpoint assay (Assay Protocol 1); type: cell-based; conditions: BRD9 degradation; for Dmax at 1 µM / Dmax: HEK293; for Dmax at 1 µM: 1 μM compound at 6 h of treatment, read-out: Assay 1 Dmax
Method in brief: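 HiBiT-tagged BRD9 knock-in HEK293 (LgBiT) cells exposed to compounds for 6 h at 37 °C, 5% CO2. Residual BRD9 measured by HiBiT lytic luminescence. % BRD9 remaining normalised to DMSO-treated cells (high) and no-cell wells (low).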

[3] = Table 2, BRD9 degradation (IF), Assay Protocol 2, MV4-11 cells, read-out: Assay 2 DC50
[4] = Assay protocol 2, BRD9 degradation, read-out: DC50
[5] = MV4-11, Assay protocol 2, BRD9 degradation, read-out: Dmax
[6] = Assay protocol 1, read-out: DC50
[7] = Assay protocol 1, read-out: Dmax
[8] = MV4-11, 24 h, Table 2, BRD9 degradation (IF), Assay Protocol 2, MV4-11 cells, read-out: Assay 2 DCmax
[9] = Table 2, Assay Protocol 1, 6 h of treatment, read-out: Assay 1 DC50
[10] = Table 4, BRD9 degradation, determined according to Assay Protocol 2, read-out: DC50^2
[11] = Table 4, determined according to Assay Protocol 1, read-out: Dmax^1
[12] = Table 4, determined according to Assay Protocol 1, read-out: DC50^1
[13] = MV4-11, Table 4, BRD9 degradation, determined according to Assay Protocol 2, read-out: Dmax^2

Row | SMILES | DC50 [1, 3] | Dmax at 1 µM ([2]; Table 2, Assay Protocol 1) | DC50 [1, 4] | Dmax [1, 5] | DC50 [2, 6] | Dmax [2, 7] | further results
1 | COc1cc(-c2cn(C)c(=O)c3cnccc23)cc(OC)c1CN1CC2CC(C1)N2Cc1cccc2c1CCN(C(=O)/C(C#N)=C/C(C)(C)C)C2C (mixture of isomers) [Compound A41, (E/Z)-2-(5-((3-(2,6-dimethoxy-4-(2-methyl-1-oxo-1,2-dihydro-2,7-naphthyridin-4-yl)benzyl)-3,6-diazabicyclo[3.1.1]heptan-6-yl)methyl)-1-methyl-1,2,3,4-tetrahydroisoquinoline-2-carbonyl)-4,4-dimethylpent-2-enenitrile] | 1.25 to 10 nM | 70 to 75% | – | – | – | – | Dmax ([1]; 24 h, Table 2, BRD9 degradation (IF), Assay Protocol 2, MV4-11 cells, read-out: Assay 2 DCmax): 70 to 75%; DC50 ([2]; read-out: Assay 1 DC50, Table 2, Assay Protocol 1, 6 h of treatment): 1.25 to 10 nM
2 | COc1cc(-c2cn(C)c(=O)c3cnccc23)cc(OC)c1CN1CCN(Cc2cccc3c2CCN(C(=O)/C(C#N)=C/c2nccs2)C3C)CC1 (mixture of isomers) [Compound A2, (E/Z)-2-(5-((4-(2,6-dimethoxy-4-(2-methyl-1-oxo-1,2-dihydro-2,7-naphthyridin-4-yl)benzyl)piperazin-1-yl)methyl)-1-methyl-1,2,3,4-tetrahydroisoquinoline-2-carbonyl)-3-(thiazol-2-yl)acrylonitrile] | < 1.25 nM | 40 to 70% | – | – | – | – | Dmax [1, 8]: 40 to 70%; DC50 [2, 9]: < 1.25 nM
3 | COc1cc(-c2cn(C)c(=O)c3cnccc23)cc(OC)c1CN1C2CCC1CN(Cc1cccc3c1CCN(C(=O)/C(C#N)=C/C(C)(C)C)C3C)C2 (stereo not shown) [Compound A49] | < 1.25 nM | 40 to 70% | – | – | – | – | Dmax [1, 8]: 40 to 70%; DC50 [2, 9]: 1.25 to 10 nM
4 | COc1cc(-c2cn(C)c(=O)c(C)c2C)cc(OC)c1CN1CC2CC(C1)N2C(=O)/C(C#N)=C/c1cccc(Br)n1 (mixture of isomers) [BRD9m, (E/Z)-3-(6-bromopyridin-2-yl)-2-(3-(2,6-dimethoxy-4-(1,4,5-trimethyl-6-oxo-1,6-dihydropyridin-3-yl)benzyl)-3,6-diazabicyclo[3.1.1]heptane-6-carbonyl)acrylonitrile] | – | – | – | – | – | – | DC50 [1, 10]: > 200 nM; Dmax [2, 11]: > 70%; DC50 [2, 12]: < 25 nM
5 | COc1cc(-c2cn(C)c(=O)c(C)c2C)cc(OC)c1CN1CC2CC1CN2Cc1cccc2c1CCN(C(=O)/C(C#N)=C/C(C)(C)C)C2C (mixture of isomers) [Compound A70, (E/Z)-2-(5-((5-(2,6-dimethoxy-4-(1,4,5-trimethyl-6-oxo-1,6-dihydropyridin-3-yl)benzyl)-2,5-diazabicyclo[2.2.1]heptan-2-yl)methyl)-1-methyl-1,2,3,4-tetrahydroisoquinoline-2-carbonyl)-4,4-dimethylpent-2-enenitrile] | < 1.25 nM | 40 to 70% | – | – | – | – | Dmax [1, 8]: 70 to 75%; DC50 [2, 9]: 10 to 25 nM
6 | COc1cc(-c2cn(C)c(=O)c(C)c2C)cc(OC)c1CN1C2CC1CN(C(=O)/C(C#N)=C/C1(C(F)(F)F)CCC1)C2 (mixture of isomers) [BRD9p, (E/Z)-2-(6-(2,6-dimethoxy-4-(1,4,5-trimethyl-6-oxo-1,6-dihydropyridin-3-yl)benzyl)-3,6-diazabicyclo[3.1.1]heptane-3-carbonyl)-3-(1-(trifluoromethyl)cyclobutyl)acrylonitrile] | – | – | – | – | – | – | Dmax [1, 13]: > 70%; Dmax [2, 11]: > 70%
7 | COc1cc(-c2cn(C)c(=O)c3cnccc23)cc(OC)c1CN1CCN(Cc2cccc3c2CCN(C(=O)/C(C#N)=C/C(C)(C)C)C3C)CC1 (mixture of isomers) [Compound A3] | 1.25 to 10 nM | 40 to 70% | – | – | – | – | Dmax [1, 8]: 40 to 70%; DC50 [2, 9]: 1.25 to 10 nM
8 | COc1cc(-c2cn(C)c(=O)c(C)c2C)cc(OC)c1C(=O)N1CC2CC1CN2C(=O)/C(C#N)=C/C(C)(C)C (mixture of isomers) [BRD9t, (E/Z)-2-(5-(2,6-dimethoxy-4-(1,4,5-trimethyl-6-oxo-1,6-dihydropyridin-3-yl)benzoyl)-2,6-diazabicyclo[2.2.1]heptane-2-carbonyl)-4,4-dimethylpent-2-enenitrile] | – | – | – | – | – | – | Dmax [1, 13]: > 70%; DC50 [1, 10]: > 200 nM; Dmax [2, 11]: > 70%
9 | COc1ccc(C2CC(C(=O)N3CCN(Cc4c(OC)cc(-c5cn(C)c(=O)c(C)c5C)cc4OC)CC3)CN(C(=O)/C(C#N)=C/C(C)(C)C)C2)cc1 (stereo not shown) [Compound B208] | – | – | – | – | – | – | Dmax [1, 13]: > 70%; DC50 [1, 10]: < 25 nM; Dmax [2, 11]: > 70%; DC50 [2, 12]: < 25 nM

Further lines, with some results ahead:

Row | DC50 [1, 3] | Dmax at 1 µM ([2]; Table 2, Assay Protocol 1) | DC50 [1, 4] | Dmax [1, 5] | DC50 [2, 6] | Dmax [2, 7] | SMILES | further results
10 | – | – | < 1.25 nM | > 75% | < 1.25 nM | > 75% | COc1cc(-c2cn(C)c(=O)c(C)c2C)cc(OC)c1CN1CCN(Cc2cccc3c2CCN(C(=O)/C(C#N)=C/C(C)(C)C)C3C)C2(CC2)C1 (mixture of isomers) [Compound B47, (E/Z)-2-(5-((7-(2,6-dimethoxy-4-(1,4,5-trimethyl-6-oxo-1,6-dihydropyridin-3-yl)benzyl)-4,7-diazaspiro[2.5]octan-4-yl)methyl)-1-methyl-1,2,3,4-tetrahydroisoquinoline-2-carbonyl)-4,4-dimethylpent-2-enenitrile] | –
11 | – | – | 10 to 25 nM | 40 to 70% | – | 40 to 70% | CCCC(c1ccc(C(=O)N(C)CCCCC(=O)N2CCN(Cc3c(OC)cc(-c4cn(C)c(=O)c(C)c4C)cc3OC)CC2)cc1)N(C)C(=O)/C(C#N)=C/c1nccs1 (mixture of isomers) [Compound B181, (E/Z)-4-(1-(2-cyano-N-methyl-3-(thiazol-2-yl)acrylamido)butyl)-N-(5-(4-(2,6-dimethoxy-4-(1,4,5-trimethyl-6-oxo-1,6-dihydropyridin-3-yl)benzyl)piperazin-1-yl)-5-oxopentyl)-N-methylbenzamide] | –
12 | – | – | < 1.25 nM | 40 to 70% | < 1.25 nM | 40 to 70% | COc1cc(-c2cn(C)c(=O)c(C)c2C)cc(OC)c1CN1CC2(C1)CN(c1cccc(C3CCCN3C(=O)/C(C#N)=C/C(C)(C)C)c1)C2 (mixture of isomers) [Compound B58, (E/Z)-2-(2-(3-(6-(2,6-dimethoxy-4-(1,4,5-trimethyl-6-oxo-1,6-dihydropyridin-3-yl)benzyl)-2,6-diazaspiro[3.3]heptan-2-yl)phenyl)pyrrolidine-1-carbonyl)-4,4-dimethylpent-2-enenitrile] | –
13 | – | – | 10 to 25 nM | 40 to 70% | 25 to 1000 nM | > 75% | COc1cc(-c2cn(C)c(=O)c(C)c2C)cc(OC)c1CN1CCC2(CC1)CCN(c1cccc3c1CCN(C(=O)/C(C#N)=C/C(C)(C)C)C3C)CC2 (mixture of isomers) [Compound B39, (E/Z)-2-(5-(9-(2,6-dimethoxy-4-(1,4,5-trimethyl-6-oxo-1,6-dihydropyridin-3-yl)benzyl)-3,9-diazaspiro[5.5]undecan-3-yl)-1-methyl-1,2,3,4-tetrahydroisoquinoline-2-carbonyl)-4,4-dimethylpent-2-enenitrile] | –
14 | – | – | 1.25 to 10 nM | > 75% | 10 to 25 nM | 70 to 75% | COc1cc(-c2cn(C)c(=O)c(C)c2C)cc(OC)c1CN1CCN(C(=O)c2cccc(C3CCCN3C(=O)/C(C#N)=C/c3nccs3)c2)CC1 (stereo not shown) [Compound B23] | –
15 | – | – | 25 to 1000 nM | > 75% | 10 to 25 nM | > 75% | COc1cc(-c2cn(C)c(=O)c(C)c2C)cc(OC)c1CN1CCN(C(=O)c2ccc(C3CCCN3C(=O)/C(C#N)=C/C(C)(C)C)cc2)CC1 (mixture of isomers) [Compound B55, (E/Z)-2-(2-(4-(4-(2,6-dimethoxy-4-(1,4,5-trimethyl-6-oxo-1,6-dihydropyridin-3-yl)benzyl)piperazine-1-carbonyl)phenyl)pyrrolidine-1-carbonyl)-4,4-dimethylpent-2-enenitrile] | –
